Assay results reported in patent US20030092683A1, “Use of tetracyclines as neuro-protective agents and for the treatment of parkinson's disease and related disorders” (priority 2001, published 2003).

Tested on: TH-positive (dopaminergic) neurons in the SNpc
Test: MPTP-induced neuronal death in vivo, TH-positive neurons by immunohistochemistry
Parameters: species or system C57BL/6 mice
Conditions: for viable TH-positive neurons in the SNpc: MPTP 20 mg/kg x4 on day 3, analysed 7 days after last MPTP, MPTP without minocycline 37% of control
Procedure: On day 3 mice were injected with MPTP (20 mg/kg×4). Seven days following the last injection of MPTP, the brains were analyzed by immun histochemistry to detect and quantify tyrosin hydroxylase (TH)-positive neurons.

SMILES: CN(C)c1ccc(O)c2c1C[C@H]1C[C@H]3[C@H](N(C)C)C(O)=C(C(N)=O)C(=O)[C@@]3(O)C(O)=C1C2=O [minocycline]
- viable TH-positive neurons in the SNpc (minocycline 90 mg/kg p.o. daily for nine days): 56 % of control
- viable TH-positive neurons in the SNpc, treatment after MPTP (minocycline 120 mg/kg p.o. beginning 4 h after the last MPTP injection, MPTP without minocycline 36% of control, p<0.05): 66 % of control
- viable TH-positive neurons in the SNpc (minocycline 120 mg/kg p.o. daily for nine days): 77 % of control
